# Reference: patent US20230150922A1, “Fluorinated Derivatives of Gabapentin and Methods of Use Thereof” (The General Hospital Corporation, priority 2020, published 2023)
# Like-named read-outs stand apart in the source and are kept apart here.
# Tests used:
# PET imaging of mice = details: FIG. 3F
# Experimental: microPET/CT: mice and rats were anesthetized with isoflurane and positioned in the bed of a microPET/CT instrument. […] Animals were imaged using dynamic PET from 0 to 120 min to provide greatest contrast.
# Data analysis: PET images were reconstructed using the scanner software and a rat brain atlas automatically fitted to the data using VivoQuant. Time activity curves (TACs) were extracted for multiple brain regions and spinal cord segments (lumbar, thoracic and cervical cord).
# [1] = PET imaging in rhesus macaques, baseline and gabapentin blocking scan; details: for specific (displaceable) binding in brain by PET: coinjection of gabapentin (5 mg/kg); for brain penetration by PET: ~5 mCi i.v.
# Text: General imaging procedure: The rhesus monkey was sedated by intramuscular injection of ketamine in its housing facility. Following sedation, the animal was intubated and placed inside a primate transport cart. The animal was transported to the scanner room and laid on the scanner bed in supine position. […] Vital signs including heart rate, respiratory rate, SpO2, exhaled CO2, blood pressure and temperature were continuously monitored for the duration of the scan. One intravenous catheter was placed in the saphenous vein for administration of the tracer. One intraarterial catheter was placed in the posterior tibial artery for blood sampling. […] Selected plasma samples were analyzed for radiometabolites using radioHPLC. MRI was coregistered to the PET/CT and TACs extracted for each brain region defined on an MR atlas.
# Study design: We scanned two male rhesus macaques. Each monkey was scanned two times. In the first session, we performed 3h dynamic scans (baseline) of each monkey. On the second session, the monkey underwent a blocking scan with coinjection of gabapentin (5 mg/kg).
# Data analysis: Pharmacokinetic modeling using metabolite-corrected arterial input function was performed. Volume of distribution (VT), binding potential (BP) other parameters were calculated.
# [2] = cited from earlier work; for patients with decreases in self-reported pain: oral
smiles,measurement,setting,value
NCC1(CC(=O)O)CCC(F)CC1 (stereo not drawn) [cis-4F-GBP],brain entry by PET,PET imaging of mice,get into the brain
"NC[C@]1(CC(=O)O)CC[C@H]([18F])CC1 [cis-[^18F]4F-GBP, cis-[^18F]4-fluoro-gabapentin]",specific (displaceable) binding in brain by PET,[1],clear specific (displaceable) binding
same,specific (displaceable) binding in brain by PET,[1]; listed as cis isomer,partial displacement
same,brain penetration by PET,[1],significant brain penetration
NCC1(CC(=O)O)CCCCC1 [gabapentin],patients with decreases in self-reported pain,[2]; diabetic neuropathy,52%
same,patients with decreases in self-reported pain,[2]; postherpetic neuralgia,46%
same,subjects with reduction in facial pain,"[2]; trigeminal neuralgia, 43 out of 92 subjects",46%
NC[C@]1(CC(=O)O)CC[C@@H](F)CC1 [trans-4F-GBP],brain entry by PET,PET imaging of mice,get into the brain
"NCC1(CC(=O)O)CCC([18F])CC1 (stereo not drawn) [trans-[^18F]4F-GBP, trans-[^18F]4-fluoro-gabapentin]",brain penetration by PET,[1],significant brain penetration
